Measured values from publication PMC9963398, “Discovery of New Quinolone-Based Diarylamides as Potent B-RAF^V600E/C-RAF Kinase Inhibitors Endowed with Promising In Vitro Anticancer Activity” (International Journal of Molecular Sciences, 2023).

Columns and labels:
[1] = tested on: MDA-MB-231/ATCC; assay: cells; settings: Homo sapiens
Experimental: (§1) The anticancer screening of target compounds over a full panel of 60 human cancer cell lines was carried out using Sulforhodamine B (SRB) assay at the National Cancer Institute (NCI), Bethesda, Maryland, USA, employing the standard protocol.

[2] = tested on: PC-3; assay: cells; settings: Homo sapiens
Experimental: as §1

[3] = tested on: MDA-MB-468; assay: cells; settings: Homo sapiens
Experimental: as §1

[4] = molecular target: T1, B-RAF^V600E (Homo sapiens, UniProt P15056, V600E); assay: HotSpot kinase assay (RBC), B-RAF^V600E; type: biochemical
T1 construct: purchased Reaction Biology Corporation (RBC), Kinase HotSpot service
T1 sequence (P15056 whole entry V600E): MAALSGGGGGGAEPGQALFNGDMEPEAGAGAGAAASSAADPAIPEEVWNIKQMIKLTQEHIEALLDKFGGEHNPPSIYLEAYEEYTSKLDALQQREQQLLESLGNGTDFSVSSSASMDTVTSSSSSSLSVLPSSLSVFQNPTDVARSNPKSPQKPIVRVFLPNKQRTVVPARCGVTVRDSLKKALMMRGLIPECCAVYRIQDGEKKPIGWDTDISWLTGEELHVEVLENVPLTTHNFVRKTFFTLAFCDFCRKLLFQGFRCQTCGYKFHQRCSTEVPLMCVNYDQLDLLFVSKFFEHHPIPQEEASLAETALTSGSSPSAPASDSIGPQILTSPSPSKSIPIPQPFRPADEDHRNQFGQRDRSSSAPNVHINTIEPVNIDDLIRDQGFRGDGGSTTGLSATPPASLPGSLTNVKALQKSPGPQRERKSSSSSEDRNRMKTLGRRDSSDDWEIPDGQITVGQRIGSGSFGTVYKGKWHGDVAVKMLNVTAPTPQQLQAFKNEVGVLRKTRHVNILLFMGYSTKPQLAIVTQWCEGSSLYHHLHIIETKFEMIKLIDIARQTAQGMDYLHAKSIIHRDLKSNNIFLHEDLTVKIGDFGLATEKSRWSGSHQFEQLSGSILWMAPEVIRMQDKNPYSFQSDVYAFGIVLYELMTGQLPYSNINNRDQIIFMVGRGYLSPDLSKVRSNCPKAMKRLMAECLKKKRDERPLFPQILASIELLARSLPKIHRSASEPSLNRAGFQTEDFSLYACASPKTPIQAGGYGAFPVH

[5] = tested on: SF-268; assay: NCI-60 five-dose SRB assay; type: cell-based; settings: Homo sapiens; SF-268, CNS cancer, five-dose test
Experimental: as §1

[6] = tested on: SR; assay: NCI-60 five-dose SRB assay; type: cell-based; settings: Homo sapiens, Leukemia, five-dose test
Experimental: as §1

[7] = tested on: A549/ATCC; assay: NCI-60 five-dose SRB assay; type: cell-based; settings: Homo sapiens, NSCL cancer, five-dose test
Experimental: as §1

[8] = tested on: SNB-19; assay: NCI-60 five-dose SRB assay; type: cell-based; settings: Homo sapiens; SNB-19, CNS cancer, five-dose test
Experimental: as §1

[9] = tested on: BT-549; assay: NCI-60 five-dose SRB assay; type: cell-based; settings: Homo sapiens; BT-549, Breast cancer, five-dose test
Experimental: as §1

[10] = tested on: HOP-62; assay: NCI-60 five-dose SRB assay; type: cell-based; settings: Homo sapiens; HOP-62, NSCL cancer, five-dose test
Experimental: as §1

[11] = tested on: SK-MEL-2; assay: NCI-60 five-dose SRB assay; type: cell-based; settings: Homo sapiens; SK-MEL-2, Melanoma, five-dose test
Experimental: as §1

[12] = tested on: SF-295; assay: NCI-60 five-dose SRB assay; type: cell-based; settings: Homo sapiens; SF-295, CNS cancer, five-dose test
Experimental: as §1

[13] = tested on: CAKI-1; assay: NCI-60 five-dose SRB assay; type: cell-based; settings: Homo sapiens; CAKI-1, Renal cancer, five-dose test
Experimental: as §1

[14] = tested on: MCF7; assay: NCI-60 five-dose SRB assay; type: cell-based; settings: Homo sapiens; MCF7, Breast cancer, five-dose test
Experimental: as §1

[15] = tested on: M14; assay: NCI-60 five-dose SRB assay; type: cell-based; settings: Homo sapiens; M14, Melanoma, five-dose test
Experimental: as §1

[16] = tested on: NCI-H226; assay: NCI-60 five-dose SRB assay; type: cell-based; settings: Homo sapiens; NCI-H226, NSCL cancer, five-dose test
Experimental: as §1

[17] = tested on: HCT-15; assay: NCI-60 five-dose SRB assay; type: cell-based; settings: Homo sapiens; HCT-15, Colon cancer, five-dose test
Experimental: as §1

[18] = tested on: SK-MEL-5; assay: NCI-60 five-dose SRB assay; type: cell-based; settings: Homo sapiens; SK-MEL-5, Melanoma, five-dose test
Experimental: as §1

[19] = tested on: SW-620; assay: NCI-60 five-dose SRB assay; type: cell-based; settings: Homo sapiens; SW-620, Colon cancer, five-dose test
Experimental: as §1

[20] = tested on: RPMI-8226; assay: NCI-60 five-dose SRB assay; type: cell-based; settings: Homo sapiens; RPMI-8226, Leukemia, five-dose test
Experimental: as §1

[21] = tested on: UACC-62; assay: NCI-60 five-dose SRB assay; type: cell-based; settings: Homo sapiens; UACC-62, Melanoma, five-dose test
Experimental: as §1

[22] = tested on: TK-10; assay: NCI-60 five-dose SRB assay; type: cell-based; settings: Homo sapiens; TK-10, Renal cancer, five-dose test
Experimental: as §1

[23] = tested on: K-562; assay: NCI-60 five-dose SRB assay; type: cell-based; settings: Homo sapiens, K562; K-562, Leukemia, five-dose test
Experimental: as §1

[24] = tested on: HL-60(TB); assay: NCI-60 five-dose SRB assay; type: cell-based; settings: Homo sapiens, Leukemia, five-dose test
Experimental: as §1

[25] = tested on: T-47D; assay: NCI-60 five-dose SRB assay; type: cell-based; settings: Homo sapiens, T47D, Breast cancer, five-dose test
Experimental: as §1

[26] = tested on: HT29; assay: NCI-60 five-dose SRB assay; type: cell-based; settings: Homo sapiens, HT-29; HT29, Colon cancer, five-dose test
Experimental: as §1

[27] = tested on: ACHN; assay: NCI-60 five-dose SRB assay; type: cell-based; settings: Homo sapiens, Renal cancer, five-dose test
Experimental: as §1

[28] = tested on: MDA-MB-435; assay: NCI-60 five-dose SRB assay; type: cell-based; settings: Homo sapiens; MDA-MB-435, Melanoma, five-dose test
Experimental: as §1

[29] = tested on: SF-539; assay: NCI-60 five-dose SRB assay; type: cell-based; settings: Homo sapiens; SF-539, CNS cancer, five-dose test
Experimental: as §1

[30] = tested on: NCI-H322M; assay: NCI-60 five-dose SRB assay; type: cell-based; settings: Homo sapiens, NSCL cancer, five-dose test
Experimental: as §1

[31] = tested on: HS 578T; assay: NCI-60 five-dose SRB assay; type: cell-based; settings: Homo sapiens, Breast cancer, five-dose test
Experimental: as §1

[32] = tested on: MOLT-4; assay: NCI-60 five-dose SRB assay; type: cell-based; settings: Homo sapiens; MOLT-4, Leukemia, five-dose test
Experimental: as §1

[33] = tested on: IGROV1; assay: NCI-60 five-dose SRB assay; type: cell-based; settings: Homo sapiens, IGROV-1; IGROV1, Ovarian cancer, five-dose test
Experimental: as §1

[34] = tested on: HOP-92; assay: NCI-60 five-dose SRB assay; type: cell-based; settings: Homo sapiens; HOP-92, NSCL cancer, five-dose test
Experimental: as §1

[35] = tested on: UO-31; assay: NCI-60 five-dose SRB assay; type: cell-based; settings: Homo sapiens; UO-31, Renal cancer, five-dose test
Experimental: as §1

[36] = tested on: MALME-3M; assay: NCI-60 five-dose SRB assay; type: cell-based; settings: Homo sapiens, Melanoma, five-dose test
Experimental: as §1

[37] = tested on: NCI-H522; assay: NCI-60 five-dose SRB assay; type: cell-based; settings: Homo sapiens; NCI-H522, NSCL cancer, five-dose test
Experimental: as §1

[38] = tested on: HCT-116; assay: NCI-60 five-dose SRB assay; type: cell-based; settings: Homo sapiens; HCT-116, Colon cancer, five-dose test
Experimental: as §1

[39] = tested on: KM12; assay: NCI-60 five-dose SRB assay; type: cell-based; settings: Homo sapiens; KM12, Colon cancer, five-dose test
Experimental: as §1

[40] = tested on: LOX IMVI; assay: NCI-60 five-dose SRB assay; type: cell-based; settings: Homo sapiens, Melanoma, five-dose test
Experimental: as §1

[41] = tested on: DU-145; assay: NCI-60 five-dose SRB assay; type: cell-based; settings: Homo sapiens; DU-145, Prostate cancer, five-dose test
Experimental: as §1

[42] = molecular target: C-RAF (Homo sapiens, UniProt P04049); assay: HotSpot kinase assay (RBC), C-RAF; settings: IC50 C-RAF
Sequence of C-RAF (P04049 whole entry): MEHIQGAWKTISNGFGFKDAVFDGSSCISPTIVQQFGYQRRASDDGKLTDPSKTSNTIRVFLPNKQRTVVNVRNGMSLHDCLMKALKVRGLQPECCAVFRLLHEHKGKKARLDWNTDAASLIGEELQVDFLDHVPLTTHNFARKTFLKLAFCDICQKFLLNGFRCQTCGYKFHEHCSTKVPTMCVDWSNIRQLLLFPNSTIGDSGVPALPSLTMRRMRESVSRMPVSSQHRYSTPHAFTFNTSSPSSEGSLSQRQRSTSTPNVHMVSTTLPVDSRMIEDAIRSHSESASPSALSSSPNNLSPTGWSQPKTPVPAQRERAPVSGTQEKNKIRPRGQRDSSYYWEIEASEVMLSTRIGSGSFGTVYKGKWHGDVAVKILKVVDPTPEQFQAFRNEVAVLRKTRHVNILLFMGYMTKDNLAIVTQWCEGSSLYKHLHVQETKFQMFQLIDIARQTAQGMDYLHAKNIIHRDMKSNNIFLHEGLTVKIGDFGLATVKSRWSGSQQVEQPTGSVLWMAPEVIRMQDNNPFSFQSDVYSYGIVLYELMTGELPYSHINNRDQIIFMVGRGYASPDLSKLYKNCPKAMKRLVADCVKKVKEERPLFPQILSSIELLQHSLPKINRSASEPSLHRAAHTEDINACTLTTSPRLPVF
Source text: Reaction Biology Corporation (RBC) Kinase HotSpotSM service was utilized for cell-free biochemical kinase evaluation of the target compounds according to the reported assay protocol [46].

[43] = 10 µM ATP, 10-dose singlicate IC50 mode

In the case of CN1CCN(Cc2ccc(C(=O)Nc3cccc(Nc4ccc5cc(O)ccc5n4)c3)cc2C(F)(F)F)CC1 [Compound 18a, N-(3-((6-hydroxyquinolin-2-yl)amino)phenyl)-4-((4-methylpiperazin-1-yl)methyl)-3-(trifluoromethyl)benzamide], the GI50 [1] is reported as 2.54 µM, the GI50 [2] is reported as 4.68 µM and the GI50 [3] is reported as 2.23 µM. For the same compound, the IC50 ([4]; 1 µM ATP) was 0.0843 ± 0.009 µM, the IC50 [4, 43] was 0.114 ± 0.00495 µM and the GI50 [5] was 10.4 µM. The GI50 [6] was 2.68 µM, the GI50 [7] was 8.7 µM and the GI50 [8] was 13.8 µM. The GI50 [9] was 12.2 µM, the GI50 [10] was 12.1 µM and the GI50 [11] was 13.5 µM. For the same compound, the GI50 [12] was 2.33 µM, the GI50 [13] was 11.9 µM and the GI50 [14] was 2.46 µM. For the same compound, the GI50 [15] was 9.06 µM, the GI50 [16] was 16 µM and the GI50 [17] was 2.09 µM. The GI50 [18] was 2.35 µM, the GI50 [19] was 2.3 µM and the GI50 [20] was 2.65 µM. The GI50 [21] was 15.4 µM, the GI50 [22] was 21.4 µM and the GI50 [23] was 1.88 µM. It also gave a GI50 [24] of 2.58 µM, a GI50 [25] of 14.6 µM and a GI50 [26] of 3.37 µM. It also gave a GI50 [27] of 7.59 µM, a GI50 [28] of 8.53 µM and a GI50 [29] of 1.98 µM. The GI50 [30] was 11 µM, the GI50 [31] was 4.17 µM and the GI50 [32] was 3.52 µM. It also gave a GI50 [33] of 16.6 µM, a GI50 [34] of 3.39 µM and a GI50 [35] of 13.4 µM. For the same compound, the GI50 [36] was 1.59 µM, the GI50 [37] was 4.82 µM and the GI50 [38] was 3.93 µM. It also gave a GI50 [39] of 3.16 µM, a GI50 [40] of 1.73 µM and a GI50 [41] of 10.5 µM. For the same compound, the IC50 ([42]; 1 µM ATP) was 0.0293 ± 0.009 µM and the IC50 [42, 43] was 0.0676 ± 0.0051 µM.
